Measurements: paper PMC3914206

Legend:
Type in all cases: binding
Details in all cases: Compound Concentration 10 µM
panel of 442 kinases [1] = target: T1, panel of 442 kinases (Homo sapiens, UniProt O75116)
T1 construct: purchased KINOMEscan
Text: (§1) We assessed the selectivity of members of this scaffold using the KINOMEscan methodology across a near comprehensive panel of 442 kinases [[18,27]].

panel of 442 kinases [2] = target: T2, panel of 442 kinases (Homo sapiens, UniProt Q14004)
T2 construct: purchased KINOMEscan
T2 sequence (Q14004 whole entry): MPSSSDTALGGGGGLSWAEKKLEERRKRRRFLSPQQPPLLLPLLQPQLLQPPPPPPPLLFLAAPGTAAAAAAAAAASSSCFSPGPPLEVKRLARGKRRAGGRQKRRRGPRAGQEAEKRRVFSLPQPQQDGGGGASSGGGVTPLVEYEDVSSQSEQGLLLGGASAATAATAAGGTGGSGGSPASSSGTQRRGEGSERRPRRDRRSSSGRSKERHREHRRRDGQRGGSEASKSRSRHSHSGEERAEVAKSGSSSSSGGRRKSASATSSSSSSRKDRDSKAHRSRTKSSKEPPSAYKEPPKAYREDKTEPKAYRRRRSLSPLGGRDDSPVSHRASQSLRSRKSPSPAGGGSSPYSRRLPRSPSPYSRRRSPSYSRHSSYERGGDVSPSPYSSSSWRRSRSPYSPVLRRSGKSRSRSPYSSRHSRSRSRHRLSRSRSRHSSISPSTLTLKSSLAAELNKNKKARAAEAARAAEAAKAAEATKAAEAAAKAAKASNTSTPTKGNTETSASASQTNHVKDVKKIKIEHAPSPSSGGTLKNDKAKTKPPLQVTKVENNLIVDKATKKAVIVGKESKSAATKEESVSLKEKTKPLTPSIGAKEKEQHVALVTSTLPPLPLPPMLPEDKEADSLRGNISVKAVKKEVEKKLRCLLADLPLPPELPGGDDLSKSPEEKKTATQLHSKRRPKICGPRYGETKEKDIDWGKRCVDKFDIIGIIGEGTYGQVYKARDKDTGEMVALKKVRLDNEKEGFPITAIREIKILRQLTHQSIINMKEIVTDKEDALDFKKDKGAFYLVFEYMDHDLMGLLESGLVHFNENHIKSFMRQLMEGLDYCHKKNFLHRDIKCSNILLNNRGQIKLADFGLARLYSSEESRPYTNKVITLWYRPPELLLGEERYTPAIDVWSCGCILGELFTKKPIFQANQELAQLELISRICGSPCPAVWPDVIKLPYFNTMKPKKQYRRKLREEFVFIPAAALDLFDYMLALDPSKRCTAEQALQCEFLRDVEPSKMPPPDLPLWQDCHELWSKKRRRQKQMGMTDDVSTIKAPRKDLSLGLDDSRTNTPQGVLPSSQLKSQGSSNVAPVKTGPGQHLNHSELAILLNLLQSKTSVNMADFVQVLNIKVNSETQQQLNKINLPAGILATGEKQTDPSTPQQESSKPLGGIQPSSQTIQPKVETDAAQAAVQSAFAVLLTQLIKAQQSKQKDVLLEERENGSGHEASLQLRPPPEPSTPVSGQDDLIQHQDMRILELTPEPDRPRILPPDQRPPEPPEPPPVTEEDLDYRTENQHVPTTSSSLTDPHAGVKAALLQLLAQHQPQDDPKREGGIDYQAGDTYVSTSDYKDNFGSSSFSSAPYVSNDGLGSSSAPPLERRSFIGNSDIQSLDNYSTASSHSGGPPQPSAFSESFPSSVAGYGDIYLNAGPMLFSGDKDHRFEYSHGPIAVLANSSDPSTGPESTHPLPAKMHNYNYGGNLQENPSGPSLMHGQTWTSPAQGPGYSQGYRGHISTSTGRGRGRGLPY
Text: as §1

panel of 442 kinases [3] = target: T3, panel of 442 kinases (Homo sapiens, UniProt P37023)
T3 construct: purchased KINOMEscan
T3 sequence (P37023 22-503): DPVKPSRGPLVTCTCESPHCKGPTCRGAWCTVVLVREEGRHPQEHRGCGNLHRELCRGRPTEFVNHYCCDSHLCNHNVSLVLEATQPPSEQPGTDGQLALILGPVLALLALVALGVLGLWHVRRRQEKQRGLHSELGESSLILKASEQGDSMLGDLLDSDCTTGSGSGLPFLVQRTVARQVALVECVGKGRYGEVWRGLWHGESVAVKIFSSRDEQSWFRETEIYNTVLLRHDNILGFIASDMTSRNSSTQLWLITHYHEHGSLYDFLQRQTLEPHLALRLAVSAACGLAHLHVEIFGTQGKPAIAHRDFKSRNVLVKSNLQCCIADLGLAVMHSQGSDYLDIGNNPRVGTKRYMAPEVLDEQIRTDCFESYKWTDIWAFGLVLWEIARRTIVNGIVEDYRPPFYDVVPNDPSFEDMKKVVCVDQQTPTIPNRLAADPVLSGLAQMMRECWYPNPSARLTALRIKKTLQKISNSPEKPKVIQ
Text: as §1

T1 sequence (O75116 whole entry): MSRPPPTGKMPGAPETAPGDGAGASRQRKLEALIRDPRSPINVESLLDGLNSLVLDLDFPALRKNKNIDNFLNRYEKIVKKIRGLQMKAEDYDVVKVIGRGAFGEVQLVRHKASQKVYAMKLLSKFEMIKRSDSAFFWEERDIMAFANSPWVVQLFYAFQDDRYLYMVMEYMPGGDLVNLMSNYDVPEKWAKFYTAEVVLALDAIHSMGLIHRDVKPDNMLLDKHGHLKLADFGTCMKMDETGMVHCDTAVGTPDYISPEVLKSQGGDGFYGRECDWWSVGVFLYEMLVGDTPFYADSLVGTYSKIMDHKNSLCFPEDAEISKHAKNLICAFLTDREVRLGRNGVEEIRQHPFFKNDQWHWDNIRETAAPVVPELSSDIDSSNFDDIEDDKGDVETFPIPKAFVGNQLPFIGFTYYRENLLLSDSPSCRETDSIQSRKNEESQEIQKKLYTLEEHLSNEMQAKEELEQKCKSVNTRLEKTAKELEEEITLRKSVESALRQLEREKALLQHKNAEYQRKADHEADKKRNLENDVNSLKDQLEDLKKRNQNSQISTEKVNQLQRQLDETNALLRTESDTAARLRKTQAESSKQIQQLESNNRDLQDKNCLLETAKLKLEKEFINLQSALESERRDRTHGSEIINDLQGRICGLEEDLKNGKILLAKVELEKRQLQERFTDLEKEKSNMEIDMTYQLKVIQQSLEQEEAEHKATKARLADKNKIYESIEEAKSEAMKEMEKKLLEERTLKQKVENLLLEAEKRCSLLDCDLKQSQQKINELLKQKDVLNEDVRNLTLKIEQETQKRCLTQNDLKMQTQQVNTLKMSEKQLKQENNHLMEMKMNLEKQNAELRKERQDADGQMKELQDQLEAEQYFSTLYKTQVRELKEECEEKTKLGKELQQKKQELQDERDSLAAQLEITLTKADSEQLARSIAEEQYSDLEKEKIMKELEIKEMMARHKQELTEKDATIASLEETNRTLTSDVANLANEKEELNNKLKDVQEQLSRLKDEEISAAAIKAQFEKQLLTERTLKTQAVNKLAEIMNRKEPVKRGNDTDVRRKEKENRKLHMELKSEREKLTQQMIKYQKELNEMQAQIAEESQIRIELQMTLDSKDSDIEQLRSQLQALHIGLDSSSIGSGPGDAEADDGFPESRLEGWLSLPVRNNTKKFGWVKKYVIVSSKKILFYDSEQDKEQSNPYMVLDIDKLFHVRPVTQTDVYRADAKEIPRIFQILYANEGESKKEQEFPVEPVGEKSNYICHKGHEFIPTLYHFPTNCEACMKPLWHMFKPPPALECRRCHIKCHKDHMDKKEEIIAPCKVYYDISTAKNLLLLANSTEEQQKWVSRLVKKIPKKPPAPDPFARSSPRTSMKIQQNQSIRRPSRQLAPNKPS

| Structure (SMILES) | KINOMEscan: ROCK2 (panel of 442 kinases [1]) | KINOMEscan: CDC2L5 (panel of 442 kinases [2]) | KINOMEscan: ACVRL1 (panel of 442 kinases [3]) |
| --- | --- | --- | --- |
| COc1cc(C(=O)N2CCC(N3CCN(C)CC3)CC2)ccc1Nc1ncc2c(n1)N1CCc3cccc(c31)C(=O)N2C [Compound 24] | 65 | – | – |
| CCOc1cc(C(=O)N2CCC(N3CCN(C)CC3)CC2)ccc1Nc1ncc2c(n1)N(C1CCCC1)c1ccccc1C(=O)N2C [Compound 26] | 83 | 100 | 100 |
| COc1cc(C(=O)N2CCC(N3CCN(C)CC3)CC2)ccc1Nc1ncc2c(n1)N(C1CCCC1)c1ccccc1C(=O)N2C [Compound 25, 11-cyclopentyl-2-((2-methoxy-4-(4-(4-methylpiperazin-1-yl)piperidine-1-carbonyl)phenyl)amino)-5-methyl-5H-benzo[e]pyrimido[5,4-b][1,4]diazepin-6(11H)-one] | 79 | 100 | 100 |
| COc1cc(C(=O)N2CCC(N3CCN(C)CC3)CC2)ccc1Nc1ncc2c(n1)N(C)c1ccccc1C(=O)N2C [15 (LRRK2-IN-1)] | 87 | 100 | 100 |
